This is an account of results in patent US8563690B2, “Modulation of platelet aggregation” (The Board of Trustees of the University of Illinois, priority 2008, dated 2013).

Residues, ends and D or L forms follow the SMILES beside them. *: point of attachment. Myristoyl = CCCCCCCCCCCCCC(=O)*

What all share (assay type): cell-based, human
The test system of data set [1] is platelets. The procedure: (§1) FIG. 2A-C: Quantitative analysis of the effect of myristoylated RGT peptide on platelet stable adhesion and spreading on immobilized fibrinogen. FIG. 2A: Platelets were added to microtiter wells precoated with fibrinogen and allowed to adhere for 30 min at 37° C. The phosphatase activity in supernatants (open columns) or in adherent platelets (close columns) was quantified by a PNPP assay. Data of three experiments (means and SD) were presented as the ratio of the phosphatase activity of platelet samples over blank. The asterisks indicate peptide concentration (* 62.5 μM; ** 125 μM; *** 250 μM). […] The phosphatase activity in supernatants (open columns) or in remaining platelet suspensions (close columns) was quantified by a PNPP assay. […] For quantitative analysis of the effect of the RGT peptide on platelet adhesion, we used a phosphatase assay. […] Nonadherent platelets were removed by three vigorous washes with phosphate-buffered saline (PBS), and adherent platelets were quantified by a phosphatase assay. In addition, to monitor peptide-dependent platelet lysis, the platelet phosphatase activity was separately measured in the supernatant of the platelets in suspension or following their adhesion to fibrinogen by mixing with PNPP substrate solution (100 mM sodium acetate, 1% Triton X-100, 3 mg/ml p-nitrophenyl phosphate) for 60 min at 37° C. […]

Data set [2] has as its system platelets. Description: Platelet stable adhesion on immobilized fibrinogen (phosphatase assay). As to conditions: 62.5-250 μM. As for the experimental part: as §1
The subject of a further data set is washed platelets. In words: Plasma-free platelet-mediated fibrin clot retraction with washed platelets. As to conditions: 1 mM. The procedure: FIG. 3A-B: Effects of myr-RGT on fibrin clot retraction and platelet aggregation. FIG. 3A: Platelets were washed and resuspended in HEPES buffer containing 2 mg/ml of human fibrinogen (see “Experimental Procedures”) and incubated with different peptides or their vehicles as indicated. Fibrin clot formation was initiated by adding 1 U/ml thrombin. Clot retraction was monitored over time and photographs of the clots were taken at different time points (lower panel). The asterisks indicate peptide concentration (* 62.5 μM; ** 125 μM; *** 250 μM). The histograms of the clot size were generated from the photographs by calculating the ratio of the surface area of the retracted clot versus that of the initial clot. […]
Platelet clot retraction is an essential step in platelet thrombus consolidation and is initiated following platelet activation as a late consequence of integrin outside-in signaling. […] Clot retraction was monitored over a 90 min time period by taking photographs at indicated time points using a digital camera. Clot retraction was quantified on the photographs by measuring the clot surface area with the NIH Image 1.67e software, and the data were processed using Excel 4.0. Results were expressed as percentage of retraction (%=area t/area t0×100%).

In the case of `CCCCCCCCCCCCCC(=O)N[C@@H](CCCNC(=N)N)C(=O)NCC(=O)N[C@H](C(=O)O)[C@@H](C)O` [myr-RGT] (Myristoyl-Arg-Gly-Thr-OH; N-terminus and C-terminus assumed), the platelet lysis result in the data set on platelets [1] is recorded as “did not induce platelet lysis”.

Consider `CCCCCCCCCCCCCC(=O)O` [myristic acid, tetradecanoic acid], for which the “effect on platelet stable adhesion on immobilized fibrinogen” value in the data set on platelets [2] was “no significant inhibitory effect”.

For the compound RGDS, the “inhibition of clot retraction” value with washed platelets was “inhibit clot retraction”.
